Tested on: GFP+ mGRPs, GFAP+ astrocytes, OLIG2+ oligodendrocytes
Protocol: Paraffin slides of the brain tissue after heated in 1 h in 60° C. were deparaffinized in: 1×10 min. Xylen I, 1×10 min Xylen II, 1×10 min EtOH 100%, 1×10 min EtOH 70%, 1×10 min EtOH 40%, 1×10 min dest. H2O. The target was retrieved in Citrate Buffer+Tween 20 (10 mM, pH=6.0) in a water bath for 20 minutes in 97° C. and then they were let cool down for another 20 minutes. Slides were washed in PBS three times and blocked 1 hour in 10% Goat serum+1% bovine albumin serum. All slides was incubated overnight at 4° C. with a first primary mouse Anti-GFP antibody 1:500 (Abcam Cat #ab1218, RRID: AB_298911). Washed three times with PBS, then secondary antibody Goat Anti-Mouse IgG H&L (Alexa Fluor® 488) in concentration 1:700 (Abcam Cat #ab 150117, RRID: AB_2688012) was applied for 40 min in RT. Then one part of the slides was washed three times in PBS and the second primary Rabbit Anti-GFAP antibody (Abcam Cat #ab7260, RRID: AB_305808) was applied 1:1000, incubated overnight at 4° C. After that the secondary antibody Goat Anti-Rabbit IgG H&L (Alexa Fluor® 594) (Abcam Cat #ab 150080, RRID: AB_2650602) was applied for 40 min RT in concentration 1:700. The second part of the slides was incubated with Rabbit Recombinant Anti-Olig2 antibody (Abcam Cat #ab109186, RRID: AB_10861310) 1:100 incubated overnight in 4° C. Next day the secondary antibody Goat Anti-Rabbit IgG H&L (Alexa Fluor® 594) (Abcam Cat #ab150080, RRID: AB_2650602) was applied for 40 min RT in 1:700 concentration. […] The slides were washed in PBS, mounted with DAKO mounting medium (Agilent Technologies, Santa Clara, CA, United States) and analyzed under Leica DM5500 fluorescent microscopy with LAS X software.

[1] = whole cross section of the mouse diencephalon

MVRIKPGSANKPSDD [sPIF]
mGRPs progeny: GFP+ astrocytes and oligodendrocytes in brain parenchyma (diencephalon, day 56): few GFP+ astrocytes and oligodendrocytes in the brain parenchyma | area of astrocytes (GFAP+) [1]: significantly larger area of astrocytes | area of oligodendrocytes (OLIG2+) [1]: larger area of oligodendrocytes
